Laboratory results reported in patent US4732977A, “Carbapenem antibiotics” (priority 1986, dated 1988).
Values after ≈ are worked out from the molar mass of the structure shown. Where two headings read alike, the source gives them in different places.

Columns and labels:
[1] = tested on: S. aureus A15097 (Meth-res.); test: M.I.C., tube dilution; type: cell-based; conditions: Staphylococcus aureus, overnight incubation at 37° C.
[2] = tested on: S. faecalis A20688; test: M.I.C., tube dilution; type: cell-based; conditions: Nutrient Broth
[3] = tested on: P. vulgaris A21559; test: M.I.C., tube dilution; type: cell-based; conditions: Nutrient Broth
[4] = tested on: P. aeruginosa A21213; test: M.I.C., tube dilution; type: cell-based; conditions: Nutrient Broth
[5] = tested on: H. influenzae A-9833; test: M.I.C., tube dilution; type: cell-based; conditions: Haemophilus influenzae, A9833; overnight incubation at 37° C., Nutrient Broth
[6] = tested on: H. influenzae A21518; test: M.I.C., tube dilution; type: cell-based; conditions: Haemophilus influenzae, overnight incubation at 37° C., Nutrient Broth
[7] = tested on: B. fragilis A22696; test: M.I.C., tube dilution; type: cell-based; conditions: Bacteroides fragilis, overnight incubation at 37° C., Nutrient Broth
[8] = tested on: P. mirabilis A-9900; test: Protective effect in intramuscular treatment of infected mice; type: in vivo; conditions: Proteus mirabilis, im; mice, i.m.; P. mirabilis A9900; read-out: PD50/treatment
Description: (§1) The PD50 (dose in mg/kg required to give protection to 50% of the infected mice) is indicated.
with drugs 0 and 2 hours postinfection.
(§2) The PD50 (dose in mg/kg) required to give protection to 50% of the infected mice is indicated.

[9] = tested on: P. aeruginosa A-9843a; test: animal or person; type: in vivo, mice
Description: as §1
with drugs 0 and 2 hours postinfection.
as §2

[10] = tested on: S. aureus A-9606; test: Protective effect in intramuscular treatment of infected mice; type: in vivo; conditions: Staphylococcus aureus, im; mice, i.m.; S. aureus A9606; read-out: PD50/treatment
Description: as §1
with drugs 0 and 2 hours postinfection.
as §2

[11] = tested on: E. coli A-15119; test: as above; type: in vivo; conditions: Escherichia coli, im; mice, i.m.; E. coli A15119; read-out: PD50/treatment
Description: as §1
with drugs 0 and 2 hours postinfection.
as §2

[12] = tested on: K. pneumoniae A9664; test: as above; type: in vivo; conditions: Klebsiella pneumoniae, im, K. pneumoniae A9664, read-out: PD50/treatment
Excerpt: as §2

[13] = tested on: P. aeruginosa A24081; test: as above; type: in vivo; conditions: Pseudomonas aeruginosa, im; mice, i.m.; P. aeruginosa A24081; read-out: PD50/treatment
Excerpt: as §2

[14] = Blood levels in mice after intramuscular administration;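 note: compounds dissolved in 0.1 M phosphate buffer at pH 7, data from one experiment using four mice for each compound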
Excerpt: Compounds were solubilized in 0.1 M phosphate buffer pH 7.
a single test; 4 mice used per compound.
Compounds were solubilized in 0.1 M phosphate buffer, pH 7.
on a single test; 4 mice per compound.

[15] = tested on: S. pneumoniae A-9585; test: M.I.C., tube dilution; type: cell-based; conditions: overnight incubation at 37° C., Nutrient Broth
[16] = tested on: S. pyogenes A-9604; test: M.I.C., tube dilution; type: cell-based; conditions: overnight incubation at 37° C., Nutrient Broth; listed as Ex. 15 "B"
[17] = tested on: S. aureus A-9537; test: M.I.C., tube dilution; type: cell-based; conditions: listed as Ex. 15 "B"
[18] = tested on: S. aureus A-9606 (Pen-res.); test: M.I.C., tube dilution; type: cell-based; conditions: overnight incubation at 37° C., listed as Ex. 15 "B"
[19] = tested on: E. coli A15119; test: M.I.C., tube dilution; type: cell-based; conditions: overnight incubation at 37° C., Nutrient Broth; listed as Ex. 15 "B"
[20] = tested on: E. coli A20341-1; test: M.I.C., tube dilution; type: cell-based; conditions: overnight incubation at 37° C., Nutrient Broth; listed as Ex. 15 "B"
[21] = tested on: K. pneumoniae A-9664; test: M.I.C., tube dilution; type: cell-based; conditions: overnight incubation at 37° C., Nutrient Broth
[22] = tested on: K. pneumoniae A20468; test: M.I.C., tube dilution; type: cell-based; conditions: overnight incubation at 37° C., Nutrient Broth; listed as Ex. 15 "B"
[23] = tested on: P. mirabilis A-9900; test: M.I.C., tube dilution; type: cell-based; conditions: overnight incubation at 37° C., Nutrient Broth
[24] = tested on: P. morganii A15153; test: M.I.C., tube dilution; type: cell-based; conditions: printed M. morganii A15153; overnight incubation at 37° C.; listed as Ex. 15 "B"
[25] = tested on: P. rettgeri A22424; test: M.I.C., tube dilution; type: cell-based; conditions: overnight incubation at 37° C., Nutrient Broth; listed as Ex. 15 "B"
[26] = tested on: S. marcescens A20019; test: M.I.C., tube dilution; type: cell-based; conditions: overnight incubation at 37° C., Nutrient Broth; listed as Ex. 15 "B"
[27] = tested on: E. cloacae A-9659; test: M.I.C., tube dilution; type: cell-based; conditions: overnight incubation at 37° C., Nutrient Broth; listed as Ex. 15 "B"
[28] = tested on: E. cloacae A-9656; test: M.I.C., tube dilution; type: cell-based; conditions: overnight incubation at 37° C., Nutrient Broth
[29] = tested on: P. aeruginosa A-9843A; test: M.I.C., tube dilution; type: cell-based; conditions: overnight incubation at 37° C., Nutrient Broth; listed as Ex. 15 "B"
[30] = overnight incubation at 37° C., listed as Ex. 15 "B"
[31] = mice, 20 mg/kg i.m. (table 9), 20 mg/kg

## C[C@@H](O)[C@H]1C(=O)N2C(C(=O)[O-])=C(SCc3ccc[n+](C)c3)C[C@H]12 [Example 3, 3-(N-Methylpyridine-3-yl-methanethio)-6α-[1-(R)-hydroxyethyl]-7-oxo-1-azabicyclo(3.2.0)hept-2-ene-2-carboxylate]
[1]
  MIC: 4 µg/mL (≈ 12 µM)
[2]; Enterococcus faecalis, A20688, overnight incubation at 37° C., read-out: MIC
  MIC: 0.5 µg/mL (≈ 1.5 µM)
[3]; Proteus vulgaris, A21559, overnight incubation at 37° C., read-out: MIC
  MIC: 0.016 µg/mL (≈ 0.0478 µM)
[4]; Pseudomonas aeruginosa, A21213, overnight incubation at 37° C., read-out: MIC
  MIC: 0.5 µg/mL (≈ 1.5 µM)
[5]
  MIC: 2 µg/mL (≈ 5.98 µM)
[6]
  MIC: 2 µg/mL (≈ 5.98 µM)
[7]
  MIC: 0.5 µg/mL (≈ 1.5 µM)
[8]
  ED50: 2 mg/kg
[9]; Pseudomonas aeruginosa, A9843A, in Mus musculus, im, read-out: PD50/treatment
  ED50: 0.5 mg/kg
[10]
  ED50: 0.07 mg/kg
[11]
  ED50: 1 mg/kg
[12]
  ED50: 3 mg/kg
[13]
  ED50: 0.8 mg/kg
[14]; mouse, blood, im, 20 mg/kg
  AUC: 6900 ng·h/mL
  Cmax: 14500 ng/mL
  half-life: 10 min

## C[C@@H](O)C1C(=O)N2C(C(=O)[O-])=C(SCc3cn(C)n[n+]3C)CC12 (stereo partly drawn) [Example 15 "B", 3-[4-(N,N-dimethyl-1,2,3-triazolium)methylthio]-6α-[1-(R)-hydroxyethyl]-7-oxo-1-azabicyclo(3.2.0)hept-2-ene-2-carboxylate]
[15]
  MIC: 0.0005 µg/mL (≈ 0.00148 µM)
[16]
  MIC: 0.001 µg/mL (≈ 0.00296 µM)
[17]; +50% serum
  MIC: 0.016 µg/mL (≈ 0.0473 µM)
[17]; overnight incubation at 37° C., Nutrient Broth
  MIC: 0.004 µg/mL (≈ 0.0118 µM)
[18]
  MIC: 0.008 µg/mL (≈ 0.0236 µM)
[2]; overnight incubation at 37° C.
  MIC: 0.5 µg/mL (≈ 1.48 µM)
[19]
  MIC: 0.008 µg/mL (≈ 0.0236 µM)
[20]
  MIC: 0.008 µg/mL (≈ 0.0236 µM)
[21]
  MIC: 0.03 µg/mL (≈ 0.0887 µM)
[22]
  MIC: 0.016 µg/mL (≈ 0.0473 µM)
[23]
  MIC: 0.03 µg/mL (≈ 0.0887 µM)
[3]; [30]
  MIC: 0.008 µg/mL (≈ 0.0236 µM)
[24]
  MIC: 0.06 µg/mL (≈ 0.177 µM)
[25]
  MIC: 0.13 µg/mL (≈ 0.384 µM)
[26]
  MIC: 0.016 µg/mL (≈ 0.0473 µM)
[27]
  MIC: 0.016 µg/mL (≈ 0.0473 µM)
[28]
  MIC: 0.03 µg/mL (≈ 0.0887 µM)
[29]
  MIC: 2 µg/mL (≈ 5.91 µM)
[4]; [30]
  MIC: 0.13 µg/mL (≈ 0.384 µM)
[9]; mice, i.m., P. aeruginosa A9843A
  PD50/treatment: 0.89 mg/kg
[14]; mice, 20 mg/kg i.m. (table 9)
  T1/2: 10 min
[14]; [31]
  AUC: 7400 ng·h/mL
  Cmax: 15900 ng/mL
